Experimental data taken from patent US20050067347A1, “Sustainable process for the treatment and detoxification of liquid waste” (priority 2001, published 2005).

Test system: Pycnoporus sanguineus MUCL 41582
Assay: Laccase activity of fungal culture with inductors
Assay type: cell-based
Conditions: for Enzymatic activity: laccase activity, inductor added after 2 days of pre-culture, measured after 5 days of incubation
Method: In an example, the inductors NY3, NY5 and RBBR were added to a fungal culture of Pycnoporus sanguineus MUCL 41582 after 2 days of pre-culture. Laccase activity was measured after 5 days of incubation of the culture with the inductors. Results are indicated in the below-given Table 2 and show clearly that laccase activity is enhanced when the fungus is cultured in the presence of inductors.

SMILES	Enzymatic activity	increase of laccase activity (versus culture without inductor)
Nc1c(S(=O)(=O)O)cc(NC2CCCCC2)c2c1C(=O)c1ccccc1C2=O [NY3]	3.87 nmol/mL	–
Cc1ccc(OS(=O)(=O)Oc2ccc(Nc3cc(S(=O)(=O)O)c(N)c4c3C(=O)c3ccccc3C4=O)cc2)cc1 [NY5]	11.60 nmol/mL	more than 20 fold
Nc1c(S(=O)(=O)[O-])cc(Nc2cccc(S(=O)(=O)CCOS(=O)(=O)[O-])c2)c2c1C(=O)c1ccccc1C2=O.[Na+].[Na+] [RBBR]	5.40 nmol/mL	–
